{"source": "patent US12065416B2", "about": "“cGAS antagonist compounds” (IMMUNESENSOR THERAPEUTICS, INC., priority 2016, dated 2024)"}
{"tested_on": "cGAS activity in THP1 cells", "experiment": "Cellular assay: ISRE-Gaussia luciferase reporter THP1 cells transfected with ISD (Interferon Stimulatory DNA)", "assay_type": "cell-based", "details": "Homo sapiens, THP-1; ISRE-Gaussia luciferase reporter THP1 cells transfected with 2 μg/mL ISD, 16 hours; read-out: THP1-ISD (Inhibition of cGAS activity in THP1 cells, IC50)", "how_it_was_run": "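ISRE (5×)-Gaussia luciferase reporter THP1 cells (0.3×10^6/well) were pretreated with compound for 5 min, then lipofected with 2 μg/mL ISD or mock-transfected. For the specificity readout, cells instead received 2 μg/mL poly(I:C) or SeV at 50 Unit/mL. Supernatant luminescence was read after 16 h with coelenterazine, and IC50 was fitted from fold induction over mock.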", "units": {"IC50": "nM"}}
{"smiles": "CN1C(=O)S/C(=C\\c2cc(OCc3cnc(NC4CC4)nc3)c(O)cc2Br)C1=O", "note": "[Ex149]", "IC50": "≤ 2500"}
{"smiles": "CN1C(=O)S/C(=C\\c2cc(OCc3cnc([S+](C)[O-])nc3)c(O)cc2Br)C1=O", "note": "(stereo not drawn) [Ex213]", "IC50": "2500 to 10000"}
{"smiles": "CN1C(=O)S/C(=C\\c2cc(OCCc3cnc(N)nc3)c(O)c(F)c2Br)C1=O", "note": "[ExB3]", "IC50": "≤ 2500"}
{"smiles": "C[S+]([O-])c1ncc(COc2cc(/C=C3\\Sc4ncccc4C3=O)c(Br)cc2O)cn1", "note": "(stereo not drawn) [Ex216]", "IC50": "≤ 2500"}
{"smiles": "CN1C(=O)S/C(=C\\c2cc(OCc3cnc(NCCO)nc3)c(O)c(F)c2Br)C1=O", "note": "[Ex152]", "IC50": "≤ 2500"}
{"smiles": "Nc1ncc(COc2cc(/C=C3\\Sc4ncccc4C3=O)c(Br)c(F)c2O)cn1", "note": "[Ex123]", "IC50": "≤ 2500"}
{"smiles": "CN1C(=O)S/C(=C\\c2cc(OCc3cncnc3)c(O)cc2Br)C1=O", "note": "[Ex140]", "IC50": "≤ 2500"}
{"smiles": "O=C1/C(=C/c2cc(OCc3cnc(NCc4ccccn4)nc3)c(O)c(F)c2Br)Sc2ncccc21", "note": "[ExA2]", "IC50": "≥ 10000"}
{"smiles": "CN1C(=O)S/C(=C\\c2cc(OCc3cnc[nH]3)c(O)cc2Br)C1=O", "note": "[Ex137]", "IC50": "2500 to 10000"}
{"smiles": "COCCNc1ncc(COc2cc(/C=C3\\Sc4ncccc4C3=O)c(Br)cc2O)cn1", "note": "[Ex197]", "IC50": "2500 to 10000"}
{"smiles": "CN1C(=O)S/C(=C\\c2cc(OCC3CCCCC3)c(O)cc2Br)C1=O", "note": "[Ex86]", "IC50": "2500 to 10000"}
{"smiles": "COc1cc(/C=C2\\SC(=O)N(C)C2=O)c(Br)cc1O", "note": "[Ex28]", "IC50": "≤ 2500"}
{"smiles": "CN1C(=O)S/C(=C\\c2cc(OCc3cnc(NN)nc3)c(O)cc2Br)C1=O", "note": "[Ex184]", "IC50": "≤ 2500"}
{"smiles": "O=C1/C(=C/c2cc(CC(F)(F)F)c(O)cc2Br)Sc2ncccc21", "note": "[ExB21]", "IC50": "2500 to 10000"}
{"smiles": "[2H]C([2H])(Oc1cc(/C=C2\\SC(=O)N(C)C2=O)c(Br)cc1O)c1cnc(N)nc1", "note": "[ExB35]", "IC50": "≤ 2500"}
{"smiles": "CN1C(=O)S/C(=C\\c2cc(OCc3cnc(N)nc3)c(Oc3cnc(N)s3)cc2Br)C1=O", "note": "[Ex211]", "IC50": "2500 to 10000"}
{"smiles": "CN1C(=O)S/C(=C\\c2cc(Oc3ccc(N)nc3)c(O)cc2Br)C1=O", "note": "[Ex234]", "IC50": "2500 to 10000"}
{"smiles": "CN1C(=O)S/C(=C\\c2cc(OCc3ccnc4[nH]cnc34)c(O)cc2Br)C1=O", "note": "[Ex68]", "IC50": "≤ 2500"}
{"smiles": "O=C1/C(=C/c2cc(OCc3cncnc3)c(O)cc2Br)Sc2ncccc21", "note": "[Ex193]", "IC50": "2500 to 10000"}
{"biological_target": "T1, recombinant cGAS (aa147-522) (Homo sapiens, UniProt Q8N884)", "T1 construct": "recombinant cGAS (aa147-522); His6-SUMO (N, cleaved yes); made in house; host or cells: E. coli BL21/pLys", "T1 sequence (Q8N884 147-522)": "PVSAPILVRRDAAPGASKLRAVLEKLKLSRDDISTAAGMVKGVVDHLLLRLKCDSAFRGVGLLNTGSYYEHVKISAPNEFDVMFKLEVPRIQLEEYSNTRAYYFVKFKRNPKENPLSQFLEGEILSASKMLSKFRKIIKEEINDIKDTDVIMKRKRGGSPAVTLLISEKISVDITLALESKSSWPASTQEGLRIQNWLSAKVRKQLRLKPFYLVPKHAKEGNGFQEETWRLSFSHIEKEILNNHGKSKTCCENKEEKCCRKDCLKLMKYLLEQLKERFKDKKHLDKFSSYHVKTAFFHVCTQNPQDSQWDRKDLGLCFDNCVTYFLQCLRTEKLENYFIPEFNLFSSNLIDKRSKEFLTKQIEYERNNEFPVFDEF", "experiment": "In vitro assay for inhibition of cGAS activity (ATP consumption, Kinase Glo)", "assay_type": "biochemical", "details": "37° C. 20 minutes, read-out: Activity (Inhibition of cGAS enzyme activity in vitro, IC50)", "how_it_was_run": "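Human cGAS (aa147-522) at 1.5 ng/μL incubated with serially diluted compound at 37° C for 20 min; remaining ATP read by Kinase Glo luminescence. IC50 from percent ATP consumption plotted against log compound concentration.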", "units": {"IC50": "nM"}}
{"smiles": "CN1C(=O)S/C(=C\\c2cc(OCc3cnc(NC4CC4)nc3)c(O)cc2Br)C1=O", "note": "[Ex149]", "IC50": "500 to 10000"}
{"smiles": "CN1C(=O)S/C(=C\\c2cc(OCc3cnc([S+](C)[O-])nc3)c(O)cc2Br)C1=O", "note": "(stereo not drawn) [Ex213]", "IC50": "≤ 500"}
{"smiles": "CN1C(=O)S/C(=C\\c2cc(OCCc3cnc(N)nc3)c(O)c(F)c2Br)C1=O", "note": "[ExB3]", "IC50": "≤ 500"}
{"smiles": "C[S+]([O-])c1ncc(COc2cc(/C=C3\\Sc4ncccc4C3=O)c(Br)cc2O)cn1", "note": "(stereo not drawn) [Ex216]", "IC50": "≤ 500"}
{"smiles": "CN1C(=O)S/C(=C\\c2cc(OCc3cnc(NCCO)nc3)c(O)c(F)c2Br)C1=O", "note": "[Ex152]", "IC50": "≤ 500"}
{"smiles": "Nc1ncc(COc2cc(/C=C3\\Sc4ncccc4C3=O)c(Br)c(F)c2O)cn1", "note": "[Ex123]", "IC50": "≤ 500"}
{"smiles": "CN1C(=O)S/C(=C\\c2cc(OCc3cncnc3)c(O)cc2Br)C1=O", "note": "[Ex140]", "IC50": "≤ 500"}
{"smiles": "O=C1/C(=C/c2cc(OCc3cnc(NCc4ccccn4)nc3)c(O)c(F)c2Br)Sc2ncccc21", "note": "[ExA2]", "IC50": "≤ 500"}
{"smiles": "CN1C(=O)S/C(=C\\c2cc(OCc3cnc[nH]3)c(O)cc2Br)C1=O", "note": "[Ex137]", "IC50": "500 to 10000"}
{"smiles": "COCCNc1ncc(COc2cc(/C=C3\\Sc4ncccc4C3=O)c(Br)cc2O)cn1", "note": "[Ex197]", "IC50": "≤ 500"}
{"smiles": "CN1C(=O)S/C(=C\\c2cc(OCC3CCCCC3)c(O)cc2Br)C1=O", "note": "[Ex86]", "IC50": "500 to 10000"}
{"smiles": "COc1cc(/C=C2\\SC(=O)N(C)C2=O)c(Br)cc1O", "note": "[Ex28]", "IC50": "≤ 500"}
{"smiles": "CN1C(=O)S/C(=C\\c2cc(OCc3cnc(NN)nc3)c(O)cc2Br)C1=O", "note": "[Ex184]", "IC50": "≤ 500"}
{"smiles": "O=C1/C(=C/c2cc(CC(F)(F)F)c(O)cc2Br)Sc2ncccc21", "note": "[ExB21]", "IC50": "≤ 500"}
{"smiles": "[2H]C([2H])(Oc1cc(/C=C2\\SC(=O)N(C)C2=O)c(Br)cc1O)c1cnc(N)nc1", "note": "[ExB35]", "IC50": "≤ 500"}
{"smiles": "CN1C(=O)S/C(=C\\c2cc(OCc3cnc(N)nc3)c(Oc3cnc(N)s3)cc2Br)C1=O", "note": "[Ex211]", "IC50": "500 to 10000"}
{"smiles": "CN1C(=O)S/C(=C\\c2cc(Oc3ccc(N)nc3)c(O)cc2Br)C1=O", "note": "[Ex234]", "IC50": "≥ 10000"}
{"smiles": "CN1C(=O)S/C(=C\\c2cc(OCc3ccnc4[nH]cnc34)c(O)cc2Br)C1=O", "note": "[Ex68]", "IC50": "≤ 500"}
{"smiles": "O=C1/C(=C/c2cc(OCc3cncnc3)c(O)cc2Br)Sc2ncccc21", "note": "[Ex193]", "IC50": "≤ 500"}
{"tested_on": "RIG-I-MAVS pathway", "experiment": "Specificity assay: ISRE reporter THP1 cells infected with Sendai Virus (SeV)", "assay_type": "cell-based", "details": "Homo sapiens, THP-1; ISRE-Gaussia luciferase reporter THP1 cells infected with Sendai Virus (SeV) at 50 Unit/mL", "description": "A reporter THP1 cell line harboring a gene encoding Gaussia Luciferase under the control of 5 tandem repeats of interferon-stimulated response elements (ISRE) was used to test inhibition of cGAS activity by synthetic compounds in human cells. These cells were plated on 96-well plates at 0.3×10^6/well and incubated with various concentrations of compounds or DMSO for 5 min, followed by transfection of 2 μg/mL of ISD (Interferon Stimulatory DNA, a 45 bp DNA oligo) or mock transfected using lipofectamine 2000 (Life Technology) method, according to manufacturer's instructions. 16 hours later, 15 μL of the media from each well is transferred to a new plate, 50 μL of solution containing 50 mM Hepes-NaOH, 50 mM NaCl, 10 mM EDTA, 1 μM of coeleanterazine was added to each well and luminescence was measured immediately. Fold increase in luminescence compared to mock transfection is plotted against concentrations of each compound, and IC50 is calculated using Graphpad. To evaluate the specificity of a compound, the same procedure was performed except that cells were transfected with 2 μg/mL poly(I:C) or infected with Sendai Virus (SeV) at 50 Unit/mL, which are known to activate the RIG-I-MAVS pathway. A specific inhibitory compound should inhibit interferon induction by DNA but have minimal effect on poly(I:C) or Sendai virus induced interferon reporter gene expression.", "units": {"IC50": "nM"}}
{"smiles": "CN1C(=O)S/C(=C\\c2cc(OCc3cnc(NC4CC4)nc3)c(O)cc2Br)C1=O", "note": "[Ex149]", "IC50": "≥ 10000"}
{"smiles": "CN1C(=O)S/C(=C\\c2cc(OCc3cnc([S+](C)[O-])nc3)c(O)cc2Br)C1=O", "note": "(stereo not drawn) [Ex213]", "IC50": "≥ 10000"}
{"smiles": "CN1C(=O)S/C(=C\\c2cc(OCCc3cnc(N)nc3)c(O)c(F)c2Br)C1=O", "note": "[ExB3]", "IC50": "≥ 10000"}
{"smiles": "C[S+]([O-])c1ncc(COc2cc(/C=C3\\Sc4ncccc4C3=O)c(Br)cc2O)cn1", "note": "(stereo not drawn) [Ex216]", "IC50": "2500 to 10000"}
{"smiles": "CN1C(=O)S/C(=C\\c2cc(OCc3cnc(NCCO)nc3)c(O)c(F)c2Br)C1=O", "note": "[Ex152]", "IC50": "≥ 10000"}
{"smiles": "Nc1ncc(COc2cc(/C=C3\\Sc4ncccc4C3=O)c(Br)c(F)c2O)cn1", "note": "[Ex123]", "IC50": "≥ 10000"}
{"smiles": "CN1C(=O)S/C(=C\\c2cc(OCc3cncnc3)c(O)cc2Br)C1=O", "note": "[Ex140]", "IC50": "≥ 10000"}
{"smiles": "O=C1/C(=C/c2cc(OCc3cnc(NCc4ccccn4)nc3)c(O)c(F)c2Br)Sc2ncccc21", "note": "[ExA2]", "IC50": "≥ 10000"}
{"smiles": "CN1C(=O)S/C(=C\\c2cc(OCc3cnc[nH]3)c(O)cc2Br)C1=O", "note": "[Ex137]", "IC50": "≥ 10000"}
{"smiles": "COCCNc1ncc(COc2cc(/C=C3\\Sc4ncccc4C3=O)c(Br)cc2O)cn1", "note": "[Ex197]", "IC50": "≥ 10000"}
{"smiles": "CN1C(=O)S/C(=C\\c2cc(OCC3CCCCC3)c(O)cc2Br)C1=O", "note": "[Ex86]", "IC50": "2500 to 10000"}
{"smiles": "COc1cc(/C=C2\\SC(=O)N(C)C2=O)c(Br)cc1O", "note": "[Ex28]", "IC50": "≥ 10000"}
{"smiles": "CN1C(=O)S/C(=C\\c2cc(OCc3cnc(NN)nc3)c(O)cc2Br)C1=O", "note": "[Ex184]", "IC50": "≥ 10000"}
{"smiles": "O=C1/C(=C/c2cc(CC(F)(F)F)c(O)cc2Br)Sc2ncccc21", "note": "[ExB21]", "IC50": "≥ 10000"}
{"smiles": "[2H]C([2H])(Oc1cc(/C=C2\\SC(=O)N(C)C2=O)c(Br)cc1O)c1cnc(N)nc1", "note": "[ExB35]", "IC50": "≥ 10000"}
{"smiles": "CN1C(=O)S/C(=C\\c2cc(OCc3cnc(N)nc3)c(Oc3cnc(N)s3)cc2Br)C1=O", "note": "[Ex211]", "IC50": "≥ 10000"}
{"smiles": "CN1C(=O)S/C(=C\\c2cc(Oc3ccc(N)nc3)c(O)cc2Br)C1=O", "note": "[Ex234]", "IC50": "≥ 10000"}
{"smiles": "CN1C(=O)S/C(=C\\c2cc(OCc3ccnc4[nH]cnc34)c(O)cc2Br)C1=O", "note": "[Ex68]", "IC50": "≥ 10000"}
{"smiles": "O=C1/C(=C/c2cc(OCc3cncnc3)c(O)cc2Br)Sc2ncccc21", "note": "[Ex193]", "IC50": "≥ 10000"}
